“Also recorded” adds a separate entry of the source.
Experiments:
Jun = assay: Transcriptional inhibition assay, Ga14 DBD-Jun TAD luciferase reporter in HeLa cells; assay type: cell-based; conditions: in words
Experimental: Cells were transfected with Firefly (500 ng/mL) and Renilla luciferase (10 ng/mL) plasmids in addition to plasmids encoding the DBD of Ga14 fused to the minimal activation domains of either MLL (250 ng/mL), Jun (100 ng/mL), or ESX (500 ng/mL, 0.1 mL of total transfection solution). Four hours post-transfection cells were treated with increasing concentration of 1b (0→50 μM) as a solution in DMSO such that the final DMSO concentration was 1% (v/v). Percent inhibition is the ratio of fold activation of Jun at each concentration of compound and the fold activation of Jun in a DMSO-treated control. Each bar represents at least three independent experiments with the indicated error (SDOM). For each concentration level of 1b shown in FIG. 5a, the first data column from the left is Jun, the middle column is MLL, and the third column is ESX. (b) MCF-7 cells were treated with 40 μM 1b (as a solution in DMSO such that the final concentration of DMSO was 1% v/v) for 24 h, at which time the cells were lysed and the lysates separated by SDS-PAGE. Western blots were performed using commercial antibodies against GAPDH, Jun, and cyclin D1.
(b) Analogs of 1b tested for MLL and Jun inhibition. (c) Inhibition of Jun with isoxazolidine analogs Inhibition assays were carried out as described in FIG. 5a (SEQ ID NOs:1-4). For each concentration level shown in FIG. 6c, the compound data is shown (from the left) in the following order: 3, 4, 5, 6, 7, 8 and 9.
HeLa cells (10,000 per well) were transfected with a Firefly luciferase reporter (500 ng/mL), and Renilla (10 ng/mL) control plasmid in addition to a plasmid encoding for either the MLL (250 ng/mL) or Jun (100 ng/mL) activation domain fused to the DNA-binding domain of Ga14 in 0.1 mL Optimem. The Optimem was removed and 0.1 mL of DMEM supplemented with 10% FBS and compound was added four hours post-transfection and the luminescence was assessed after 24 h as described above.

MCF-7 cells = assay: Cell viability assay (WST-1); assay type: cell-based; conditions: at concentrations ≧50 μM (so in the source)
Experimental: Viability data was acquired after 24 h using a cell-permeable metabolic dye, WST-1 (Roche). Viability data was normalized based on cell viability in the presence of 1% DMSO.
MCF-7 cells (American Tissue Culture Collection) were seeded at 5000 cells per well in a 96 well plate in RPMI media supplemented with 10% fetal bovine serum and allowed to adhere (37° C. and 5% CO2) overnight. Cells were incubated with 1b in DMSO or DMSO alone to a final DMSO concentration of 1% (v/v) for 24 hrs. WST-1 (Roche) was subsequently added to wells and the 96 well plate was incubated for 1 h at 37° C. Absorbance at 440 nm was read on a Tecan GENios Pro plate reader following 1 minute of orbital shaking. Data was corrected for wells containing media+WST-1 without cells. Each value is the average of at least three wells with the indicated error (SDOM).

KIX domain of CBP = biological target: T1, KIX domain of CBP (Mus musculus, UniProt P45481); assay: 1H-15N-HSQC binding analysis; conditions: 200 μM 15N-His6KIX, 5 eq. compound
T1 construct: the KIX domain, an 87-residue module whose solution structure has been elucidated; made in house
Experimental: The amide chemical shifts that change upon addition of 4 were quantitated were quantified using the equation: Δδ=[Δδ(^1H)^2+0.1Δδ(^15N)^2]^1/2, FIG. 7B bottom.
Uniformly labeled His6KIX protein was expressed and purified as previously described and stored as a lyophilized powder (see, e.g., Buhrlage, 2009). A 200 μM solution of His6KIX was prepared by dissolving the lyophilized protein, in a 9:1 H2O:D2O 10 mM PBS buffer containing 150 mM NaCl at pH 7.2. ^1H-^15N HSQC experiments were recorded at 27° C. on an Avance Bruker 600 MHz NMR spectrometer equipped with a 5 mm cryogenic probe. An HSQC was collected in the absence of isoxazolidine 4 and compared with data recorded in the presence of 5 eq. (1 mM) of 4. Data was processed using NMRPIPE. Chemical shift assignments were based on previously reported data′ and chemical shift analyses with Sparky software were quantified (Δδ=[Δδ(^1H)^2+0.1Δδ(^15N)^2]^1/2).

T1 sequence (P45481 586-665 limits assumed): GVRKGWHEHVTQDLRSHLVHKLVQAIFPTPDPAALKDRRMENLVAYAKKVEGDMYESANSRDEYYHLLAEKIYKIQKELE

Structure (SMILES)	effect on Jun-driven transcription (Jun)	toxicity (MCF-7 cells)	KIX binding by 1H-15N-HSQC (KIX domain of CBP)
CC(C)C[C@]1(CCO)C[C@H](CN=[N+]=[N-])ON1Cc1ccc(F)cc1 (racemic) [isoxazolidine 6]	dose-dependent manner; also recorded: enhanced potency		
CC(C)CCN1O[C@@H](CN=[N+]=[N-])C[C@@]1(CCO)CC(C)C (racemic) [isoxazolidine 7]	dose-dependent manner; also recorded: enhanced potency		
CC(C)CN1O[C@@H](CN=[N+]=[N-])C[C@@]1(CCO)CC(C)C (racemic) [isoxazolidine 8]	little activity		
CC(C)C[C@]1(CCO)C[C@H](CN=[N+]=[N-])ON1Cc1ccc(O)cc1 (racemic) [isoxazolidine 4]	little activity	no measurable toxicity	did not negatively impact KLX binding
CCCN1O[C@@H](CN=[N+]=[N-])C[C@@]1(CCO)CC(C)C (racemic) [isoxazolidine 9]	little activity		
